Columns and labels:
[1] = Transmetalation (dissociation) kinetics of the Mn(II) complexes with Cu2+; type: physicochemical
Procedure: There is a wide consensus among the coordination chemistry community that kinetic inertness is more important for the safe use of metal complexes for imaging applications than thermodynamic stability.[8],[49],[50] Thus, we conducted a detailed investigation of the transmetalation kinetics of the Mn-PYAN and Mn-CHXPYAN complexes, by following their exchange reactions with Cu^2+ in the pH range of 2.5–4.5 (eq 3). [drawing 3] 3
All reactions were carried out in the presence of a large excess of Cu^2+ in order to guarantee the pseudo-first-order kinetic conditions. The transmetalation of Mn-PYAN in the pH range ∼2.0–4.5 is very fast, and thus the rates of the reactions were measured using the stopped-flow technique. Conversely, the exchange reactions of the Mn-CHXPYAN complex are slow and could be studied by using conventional methods. The transmetalation reactions of Mn-PYAN and Mn-CHXPYAN were monitored by following the formation of the corresponding Cu(II) complexes at 295 nm.
The kd values increase upon increase in [H^+] and are independent of the concentration of Cu^2+ as it was found for Mn-PCTA, Mn-PC3AM, and Mn-bispidine complexes.[49],[51] […] The increase in the kd values with increasing H^+ concentration can be interpreted in terms of the extremely slow spontaneous (k0, eq 4) and the proton-assisted (k*[Mn(HL), eq 6) dissociation of Mn(II) complexes. The saturation behavior of the plots of kd versus [H^+] (Figure 5) is characteristic for the equilibrium formation and the accumulation of the *[Mn(HL)] intermediate characterized by the *KH protonation constant (eq 5). The analysis of the rate constants obtained for Mn-CHXPYAN indicates a second-order dependence of kd on [H^+], which can be explained by the proton-assisted dissociation of the *[Mn(HL)] intermediate (k^H*[Mn(HL)], eq 7). [drawing 4] 4 [drawing 5] 5 [drawing 6] 6 [drawing 7] 7
In the presence of excess of the exchanging ion, the transmetalation can be treated as a pseudo-first-order process, and the rate of reactions can be expressed with eq 8, where kd is a pseudo-first-order rate constant and [MnL]t is the total concentration of the complex. [drawing 8] 8
Through consideration of all the possible pathways, the rate of the transmetalation of Mn-PYAN and Mn-CHXPYAN with Cu^2+ can be expressed by eq 9 [drawing 9] 9 Considering the total concentration of the Mn(II) complex ([MnL]t = [MnL] + [*Mn(HL)], as well as the equation defining the protonation constant for the formation of the *[Mn(HL)] intermediate (eq 5) and eq 8, the pseudo-first-order rate constant can be expressed as follows [drawing 10] 10 where k1 = k*[Mn(HL)] × *KH and k2 = k^H*[Mn(HL)] × *KH. The rate and protonation constants characterizing the transmetalation of Mn-PYAN and Mn-CHXPYAN with Cu^2+ have been calculated by fitting the kd values presented in Figure 5 to eq 10 and the values obtained are compared with the corresponding values of Mn-DOTA, Mn-DO3A, Mn-PCTA, Mn-PC3AM^H, and Mn-bispidine in Table 3.
Rates of the metal exchange reactions of Mn-PYAN and Mn-CHXPYAN with Cu^2+ were measured by spectrophotometry by following the formation of the related Cu(II) complexes at 295 nm with an Applied Photophysics DX-17MV stopped-flow instrument and PerkinElmer Lambda 365 UV–vis spectrophotometer using 1.0 cm cells, respectively. The concentration of Mn-PYAN and Mn-CHXPYAN was 1.0 × 10^–4 M, whereas the concentration of Cu^2+ was 10 and 20 times higher in order to guarantee pseudo-first-order conditions. The temperature was maintained at 25 °C and the ionic strength of the solutions was kept constant with 0.15 M NaCl. The exchange rates were studied in the pH range of ca. 2.0–4.5. To keep the pH values constant, monochloroacetic acid (pH range 2.0–3.3), 1,4-dimethylpiperazine (pH range 3.3–4.1), and N-methylpiperazine (pH range 4.1–4.5) buffers were used (0.01 M). […]

[2] = protonation constant of the complex, KMnLH = [MnHL]/[MnL] × [H^+]; cited from earlier work

| t1/2 at pH = 7.4 ([1]; dissociation half-life of the Mn(II) complex, 0.15 M NaCl, 25 °C) [h] | SMILES | acid-catalyzed dissociation rate kd ([1]; pH = 5.5, 25 °C) | t1/2 ([1]; pH = 5.5, 25 °C) [h] | k1 lower than that determined for Mn-PYAN ([1]; ratio of k1 values) [times] | log KMnLH [2] |
| --- | --- | --- | --- | --- | --- |
| – | [Mn+2].c1cc2nc(c1)CN[C@@H]1CCCC[C@H]1NCc1cccc(n1)CN[C@@H]1CCCC[C@H]1NC2 [Mn-CHXPYAN] | 7.9 × 10^–7 s^–1 | 240 | 3600 | – |
| 5.85 | [Mn+2].c1cc2nc(c1)CNCCNCc1cccc(n1)CNCCNC2 [Mn-PYAN] | – | – | – | 5.19 |

— publication PMC11247486, “Improving the In Vivo Stability of [^52Mn]Mn(II) Complexes with 18-Membered Macrocyclic Chelators for PET Imaging” (Journal of Medicinal Chemistry, 2024)
